Data on two compounds can be found in paper PMC7727793, “Aggregation Behavior, Antibacterial Activity and Biocompatibility of Catanionic Assemblies Based on Amino Acid-Derived Surfactants” (International Journal of Molecular Sciences, 2020).

The subject of data set [1] is all microorganisms tested. Nature of the data set: Broth microdilution MIC, statement for all microorganisms tested. In kind it is cell-based. The note with it: for Antibacterial activity (in words): tested microorganisms. As for the experimental part:
(§1) Antibacterial assays were conducted in vitro using the broth microdilution method. The minimum inhibitory concentration (MIC) is the smallest concentration of antibacterial agent at which bacterial growth is not observed. MIC values were determined for 4 Gram-positive bacteria (methicillin-resistant Staphylococcus aureus ATCC 43300 (MRSA), Bacillus subtilis ATCC 6633, Kocuria rhizophila 9341, Staphylococcus epidermidis ATCC 12228), 3 Gram-negative bacteria (Klebsiella pneumoniae ATCC 4532, Pseudomonas aeruginosa ATCC 27853, Escherichia coli ATCC 8739) and the fungal strain, Candida albicans ATCC 10231. Frozen stocks of bacteria were incubated on Muller Hinton agar plates for 24 h at 37 °C. From this culture, a bacterial suspension of 1 × 10^6 colony forming units CFU/mL was prepared in MHB (pH = 7.3). Two dilutions of pure surfactants and their binary mixtures were prepared in MH broth to obtain a final concentration ranging from 4 to 454 μM in the microtiter plates.
(§2) Then, 10 μL of nutrient broth culture of each microorganism was added to achieve a final density of ca. 5 × 10^5 CFU/mL. The cultures were incubated for 24 h at 37 °C. Every assay was repeated three times.
A general note: Dilution methods test growth across graded concentrations, often in twofold steps.

For the next data set, the system named is A431 cell line. Description: NRU cell viability assay. In kind it is cell-based. As to conditions: Homo sapiens, A-431, 24 h. How it is done: (§3) The murine Swiss albino fibroblast (3T3), the squamous carcinoma (A431), the immortal human keratinocyte (HaCaT) and the human epithelial carcinoma (HeLa) cell lines were obtained from Celltec UB. Cells were grown in Dulbecco’s Modified Eagle’s Medium (DMEM) (4.5 g/L glucose) supplemented with 10% (v/v) fetal bovine serum (FBS), 1% (v/v) L-glutamine solution (200 mM) and 1% (v/v) penicillin-streptomycin solution (10,000 U/mL penicillin and 10 mg/mL streptomycin) at 37 °C and 5% CO2 (CO2 Incubator Nuaire, Plymouth, MN, USA). All the biological materials were purchased from Lonza (Verviers, Belgium). Cells were cultured in 75 cm^2 culture flasks (TPP, Trasadingen, Switzerland) and were routinely split using trypsin-EDTA (ethylenediaminetetraacetate) solution (170,000 U/L trypsin and 0.2 g/L EDTA) (Lonza, Verviers, Belgium) when cells are approximately 80% confluent. 3T3 and HaCaT cells (1 × 10^5 cells/ mL) and HeLa and A431 cells (5 × 10^4 cells/mL) were grown at the defined densities into the central 60 wells of a 96-well plate. Cells were incubated for 24 h under 5% CO2 at 37 °C. […] Agitation, determination of the absorbance of the extracted solution and effect of each treatment in comparison with control cells were analogous of those described in the case of the MTT method.

The next data set has as its system HeLa cell line. Description: NRU cell viability assay. In kind it is cell-based. The note with it: Homo sapiens, 24 h. As for the experimental part:
as §3

Data set [2] can be described thus: SAXS, core-shell model fit. In kind it is physicochemical. How it is done: SAXS was measured at the Non-Crystalline Diffraction beamline at ALBA Synchrotron NCD-SWEET, Barcelona. A sample-detector distance of 2.433 m was used with 0.10 nm wavelength coupled with a Q315r detector from ADSC. The q scale was calibrated with a silver behenate sample, and data reduction was performed with the software provided by the beamline. The intensity is shown as a function of scattering vector q expressed in nm^−1. q = (4π/λ) sin(θ/2), where θ is the scattering angle and λ is the wavelength of radiation. The spectra have been fitted to lamellar models based on Gaussian description of the bilayer electronic profile for the vesicles, as described in Haba et al.. We have kept the bilayer hydrophobic profile constant along all the samples to avoid overfitting. In these conditions, the estimated error in the position of the headgroups is 2% and 5% for the width of the Gaussian. The pure histidine derivative DMHNHC14 has been fitted to a core-shell model as described in Reference. SAXS of the pure DMHNHC14 compound was measured using an in-house instrument S3-MICRO (Hecus X-ray systems GMBH, Graz, Austria) coupled to a GENIX-Fox three-dimensional (3D) X-ray source (Xenox, Grenoble, France), as described in Reference and performing the same procedures as detailed therein.

In data set [3] the test system is Klebsiella pneumoniae ATCC 13883. Description: Broth microdilution MIC. In kind it is cell-based. As to conditions: 24 h, 37 °C, total surfactant concentration.
Data set [4] has as its system Escherichia coli ATCC 25922. Description: Broth microdilution MIC. In kind it is cell-based. The note with it: 24 h, 37 °C, total surfactant concentration.
In data set [5] the test system is Bacillus subtilis ATCC 6633. Description: Broth microdilution MIC. In kind it is cell-based. The note with it: 24 h, 37 °C, total surfactant concentration. As for the experimental part:
as §1, §2

For data set [6], the system named is Candida albicans ATCC 10231. Nature of the data set: Broth microdilution MIC. The note with it: 24 h, 37 °C, total surfactant concentration. In kind it is cell-based. As for the experimental part: as §1, §2
Data set [7] relates to Kocuria rhizophila ATCC 9341. Description: Broth microdilution MIC. The note with it: 24 h, 37 °C, total surfactant concentration. In kind it is cell-based. As for the experimental part:
as §1, §2

For data set [8], the system named is Pseudomonas aeruginosa ATCC 27853. Nature of the data set: Broth microdilution MIC. In kind it is cell-based. As to conditions: 24 h, 37 °C, total surfactant concentration. How it is done:
as §1, §2

The subject of data set [9] is Staphylococcus epidermidis ATCC 12228. Description: Broth microdilution MIC. In kind it is cell-based. As to conditions: 24 h, 37 °C, total surfactant concentration. As for the experimental part:
as §1, §2

A further data set concerns erythrocytes. In kind it is cell-based, rabbit. How it is done:
The erythrocytes, taken from rabbit blood samples, were washed three times in PBS (pH 7.4) and resuspended in PBS at a cell density of 8 × 10^9 cells/mL. The hemolytic activity of the catanionic formulations used in this work was carried out using the procedure described by Pape et al. with minor modifications. A series of different volumes of a concentrated solution (1000 μM for the general case and 5000 μM for the 20:80 and cholesterol-containing formulations) of the catanionic formulation (10–80 μL) were placed in polystyrene tubes containing 25 μL of the prepared erythrocyte suspension and PBS buffer was added to each tube to a total volume of 1 mL. The resulted solutions were incubated at room temperature and shaken for 10 min and the tubes were then centrifuged (5 min at 10,000 rpm). The hemolysis (%) was calculated by comparing the absorbance (540 nm) of the supernatant of the solutions with that of Milli-Q water (control 100% hemolysis) and PBS buffer solution (control, 0% hemolysis).

Broadly, the MIC is the lowest concentration that inhibits growth of the organism. As usually defined, the IC50 is the point on the concentration scale where inhibition reaches its midpoint. Read a low IC50 as inhibition by little substance. On to `CCCCCCCCCCCCCC(=O)O` [Sodium myristate, sodium myristate], for which the MIC in data set [1] (read-out: MIC for all microorganisms tested) was above 113 µM. The “Antibacterial activity (in words)” value in data set [1] is “did not show activity”. Moreover, the half-maximal inhibitory concentration (IC50) with A431 cell line and with HeLa cell line was above 50 µM throughout.
The compound “N(π),N(τ)-bis(methyl)-L-Histidine tetradecyl amide [DMHNHC14]” had an Aggregation number in data set [2] (from SAXS core-shell fit) of 64. Further, in [2] (from SAXS core-shell fit), the “Area per molecule (SAXS)” value was 0.66 nm^2. In addition, the “Hydration degree per polar head” value in [2] (from hydrophilic shell volume and electronic density) is recorded as “about 17 water molecules”. Moreover, the “Hydrophilic corona thickness (core-shell model)” value in data set [2] (micelles of pure surfactant) is 0.88 nm. Also, the “Hydrophobic radius (core-shell model)” value in data set [2] (micelles of pure surfactant) is given as 1.84 nm. Also, the minimum inhibitory concentration (MIC) in data set [3] is 113 µM; in [4] it was 113 µM; in data set [5], 28 µM; in [6] it was 28 µM; in data set [7], 28 µM; in [8], 227 µM. Besides, the minimum inhibitory concentration (MIC) in data set [9] worked out at 14 µM. In data set [1], the “Antibacterial activity (in words)” value is listed as “broad spectrum of antibacterial activity”. Further, the Hemolytic activity entry in the data set on erythrocytes is listed as “increases with the dose”.
